Results published in patent US8673974B2, “Substituted amino bisphenyl pentanoic acid derivatives as NEP inhibitors” (Novartis AG, priority 2010, dated 2014).
pIC50: −log10 of the molar value.

Target: T1, recombinant human neutral endopeptidase (NEP, EC 3.4.24.11) (Homo sapiens, UniProt P08473)
T1 construct: made in house; host or cells: insect cells
Test: in vitro inhibition of recombinant human neutral endopeptidase (fluorescence lifetime assay)
Type: biochemical
Conditions: recombinant human NEP 7 pM, 1 hour pre-incubation, substrate Cys(PT14)-Arg-Arg-Leu-Trp-OH 0.7 μM, read after 1 hour at room temperature, pH 7.4
Excerpt: The activity of a compound according to the present invention can be assessed by the following in vitro & in vivo methods and/or by the following in vitro & in vivo methods well-described in the art. See A fluorescence lifetime-based assay for protease inhibitor profiling on human kallikrein 7 Doering K, Meder G, Hinnenberger M, Woelcke J, Mayr L M, Hassiepen U Biomol Screen.
In particular, the in vitro inhibition of recombinant human neutral endopeptidase (NEP, EC 3.4.24.11) can be determined as follows: […]

T1 sequence (P08473 whole entry): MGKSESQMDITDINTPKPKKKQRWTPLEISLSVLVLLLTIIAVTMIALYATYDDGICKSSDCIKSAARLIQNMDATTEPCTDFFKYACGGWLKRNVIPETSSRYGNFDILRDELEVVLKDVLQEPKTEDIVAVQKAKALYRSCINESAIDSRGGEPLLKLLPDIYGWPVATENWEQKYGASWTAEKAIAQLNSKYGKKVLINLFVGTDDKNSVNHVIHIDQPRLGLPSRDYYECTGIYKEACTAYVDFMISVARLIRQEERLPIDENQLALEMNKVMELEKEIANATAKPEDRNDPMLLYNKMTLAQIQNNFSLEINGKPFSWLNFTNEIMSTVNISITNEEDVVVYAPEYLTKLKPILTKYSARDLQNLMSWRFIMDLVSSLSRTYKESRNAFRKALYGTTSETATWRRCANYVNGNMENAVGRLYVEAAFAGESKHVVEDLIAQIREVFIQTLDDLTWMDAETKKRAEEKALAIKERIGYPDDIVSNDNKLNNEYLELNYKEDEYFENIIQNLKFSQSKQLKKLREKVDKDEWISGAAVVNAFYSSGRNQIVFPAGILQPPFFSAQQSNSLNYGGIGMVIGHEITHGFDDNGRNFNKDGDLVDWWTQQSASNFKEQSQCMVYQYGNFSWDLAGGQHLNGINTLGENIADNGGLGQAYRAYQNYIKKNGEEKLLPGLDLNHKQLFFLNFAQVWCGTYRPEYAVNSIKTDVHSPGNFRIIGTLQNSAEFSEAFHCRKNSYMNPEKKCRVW

COc1ccccc1-c1ccc(C[C@H](CC(C)C(=O)O)NC(=O)CCC(=O)O)cc1 (stereo partly drawn) [Example 6, (S)-4-(3-Carboxy-propionylamino)-5-(2′-methoxy-biphenyl-4-yl)-2-methyl-pentanoic acid]
pIC50: 8.52
